# Read-outs that look alike come from different tables or passages of the source.
# Tests used:
# Assay type in all cases: cell-based
# NR2F6 LBD = target: T1, NR2F6 LBD (Homo sapiens, UniProt P10588); assay: NR2F6 LBD transient transfection; conditions: LBD
# T1 construct: expressed in transfected cells
# T1 sequence (P10588 165-393 limits assumed): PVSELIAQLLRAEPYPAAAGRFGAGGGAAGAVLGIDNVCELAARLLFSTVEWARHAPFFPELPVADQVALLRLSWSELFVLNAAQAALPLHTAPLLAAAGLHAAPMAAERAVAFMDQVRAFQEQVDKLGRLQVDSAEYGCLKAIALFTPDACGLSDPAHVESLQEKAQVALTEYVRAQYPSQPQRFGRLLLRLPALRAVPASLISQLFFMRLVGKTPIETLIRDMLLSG
# Procedure: FIGS. 27A and 27B show NR2F6 and LBD transient transfection, respectively, for Compound D28. Higher concentrations were excluded due to lower signal (tox effect). FIGS. 27C and 27D show NR2F6 and LBD transient transfection at different concentrations for different compounds. 9 compounds were tested on LBD transfected cells (40, 10, 2 and 0.5 μM, 4 replicates). FIGS. 27E and 27F show toxicity of Compound D28. 9 compounds were tested for cytotoxicity on LBD transfected cells (40, 10, 2 and 0.5 μM, 4 replicates). […] Cytotoxicity normalized to DMSO is shown in FIG. 27F (0% cytotoxicity corresponds to DMSO signal, 100%—zero signal).
# FIGS. 34A and 34B show NR2F6 LBD transient transfection for Compound E21. 9 compounds were tested on LBD transfected cells (40, 10, 2 and 0.5 μM, 4 replicates). FIGS. 34C and 34D show NR2F6 and LBD transient transfection at different concentrations for different compounds. 9 compounds were tested on LBD transfected cells (40, 10, 2 and 0.5 μM, 4 replicates). […] Cytotoxicity normalized to DMSO is shown in FIG. 34D (0% cytotoxicity corresponds to DMSO signal, 100%—zero signal). All compounds were tested at 5, 10, 25 and 50 uM in duplicates. Dog PBMC (1×10^6 cells/mL) were activated by 10 ng/mL PMA+500 ng/mL ionomycin. Data were normalized to controls with (100%)/without (0%) PMA+ionomycin activation.
# FIGS. 39A and 39B show NR2F6 LBD transient transfection for Compound F1. 9 compounds were tested on LBD transfected cells (40, 10, 2 and 0.5 μM, 4 replicates). FIGS. 39C and 39D show toxicity of NR2F6 LBD transient transfection. 9 compounds were tested for cytotoxicity on LBD transfected cells (40, 10, 2 and 0.5 μM, 4 replicates). Tox effect causes lower signal compared to DMSO. Cytotoxicity normalized to DMSO is shown in FIG. 39D (0% cytotoxicity corresponds to DMSO signal, 100%—zero signal).
# Renilla = Renilla signal in NR2F6 agonist screening, cmpd/DMSO; conditions: Renilla, F4
# NR2F6 = target: T2, NR2F6 (Homo sapiens, UniProt P10588); assay: NR2F6 agonist screening, Firefly signal cmpd/DMSO
# T2 construct: expressed in transfected cells; also transient transfection
# T2 sequence (P10588 1-404): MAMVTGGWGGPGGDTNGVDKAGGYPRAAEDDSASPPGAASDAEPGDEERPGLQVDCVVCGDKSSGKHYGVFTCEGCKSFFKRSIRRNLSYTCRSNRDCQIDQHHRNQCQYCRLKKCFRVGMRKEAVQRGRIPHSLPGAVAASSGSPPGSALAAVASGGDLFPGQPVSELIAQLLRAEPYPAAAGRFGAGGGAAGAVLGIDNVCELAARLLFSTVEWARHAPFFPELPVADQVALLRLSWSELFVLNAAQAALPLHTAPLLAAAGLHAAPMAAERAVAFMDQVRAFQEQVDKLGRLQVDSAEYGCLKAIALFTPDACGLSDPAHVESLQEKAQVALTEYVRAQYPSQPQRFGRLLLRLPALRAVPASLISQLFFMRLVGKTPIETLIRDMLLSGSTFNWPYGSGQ
# HEK293 pGL4 = assay: Firefly_pGL signal, cmpd/DMSO (pGL4 control cells); conditions: Homo sapiens
# [1] = read-out: Renilla, F4, cmpd/DMSO (mean)
# [2] = 1% FBS, read-out: Renilla, F4, 1% FBS, cmpd/DMSO (mean)
# [3] = 10% FBS, read-out: Renilla, F4, 10% FBS, cmpd/DMSO (mean)
# [4] = HEK293, 0.5 uM, pGL4, read-out: Firefly pGL4, cmpd/DMSO (mean)
# [5] = HEK293, 2 uM, pGL4, read-out: Firefly pGL4, cmpd/DMSO (mean)
# [6] = HEK293, 10 uM, pGL4, read-out: Firefly pGL4, cmpd/DMSO (mean)
# [7] = HEK293, 40 uM, pGL4, read-out: Firefly pGL4, cmpd/DMSO (mean)
# [8] = HEK293, pGL4, 1% FBS, 0.5 uM, read-out: Firefly, pGL4, 1% FBS, cmpd/DMSO (mean)
# [9] = HEK293, pGL4, 1% FBS, 2 uM, read-out: Firefly, pGL4, 1% FBS, cmpd/DMSO (mean)
# [10] = HEK293, pGL4, 1% FBS, 10 uM, read-out: Firefly, pGL4, 1% FBS, cmpd/DMSO (mean)
# [11] = HEK293, pGL4, 1% FBS, 40 uM, read-out: Firefly, pGL4, 1% FBS, cmpd/DMSO (mean)
# [12] = HEK293, pGL4, 10% FBS, 0.5 uM, read-out: Firefly, pGL4, 10% FBS, cmpd/DMSO (mean)
# [13] = HEK293, pGL4, 10% FBS, 2 uM, read-out: Firefly, pGL4, 10% FBS, cmpd/DMSO (mean)
# [14] = HEK293, pGL4, 10% FBS, 10 uM, read-out: Firefly, pGL4, 10% FBS, cmpd/DMSO (mean)
# [15] = HEK293, pGL4, 10% FBS, 40 uM, read-out: Firefly, pGL4, 10% FBS, cmpd/DMSO (mean)
compound,measurement,setting,value
C[C@@H]1C[C@H](C)CN([C@H]2CS(=O)(=O)C[C@@H]2S(=O)(=O)c2ccccc2)C1 [Compound D112],"Firefly LBD, cmpd/DMSO (mean)",NR2F6 LBD; 0.5 uM,1.1
same,"Firefly LBD, cmpd/DMSO (mean)",NR2F6 LBD; 2 uM,1.2
same,"Firefly LBD, cmpd/DMSO (mean)",NR2F6 LBD; 10 uM,1.8
same,"Firefly LBD, cmpd/DMSO (mean)",NR2F6 LBD; 40 uM,1.9
same,fold induction at 0.5 µM,Renilla; [1],1
same,fold induction at 2 µM,Renilla; [1],1.1
same,fold induction at 10 µM,Renilla; [1],1.3
same,fold induction at 40 µM,Renilla; [1],1.6
same,fold induction at 0.5 µM,Renilla; [2],1.1
same,fold induction at 2 µM,Renilla; [2],1.1
same,fold induction at 10 µM,Renilla; [2],1.4
same,fold induction at 40 µM,Renilla; [2],2
same,fold induction at 0.5 µM,Renilla; [3],1
same,fold induction at 2 µM,Renilla; [3],1
same,fold induction at 10 µM,Renilla; [3],1.3
same,fold induction at 40 µM,Renilla; [3],2.1
same,"Firefly F4, cmpd/DMSO (mean)",NR2F6; 0.5 uM,1.2
same,"Firefly F4, cmpd/DMSO (mean)",NR2F6; 2 uM,1.9
same,"Firefly F4, cmpd/DMSO (mean)",NR2F6; 10 uM,2.8
same,"Firefly F4, cmpd/DMSO (mean)",NR2F6; 40 uM,2.6
same,"F4, Firefly/Renilla for S/B(F4) > 3","NR2F6; 1% FBS, 40 uM",1.6
same,"Firefly, F4/pGL4 for S/B(F4) > 3","NR2F6; 1% FBS, 40 uM",2.7
same,"F4, Firefly/Renilla for S/B(F4) > 3","NR2F6; 10% FBS, 40 uM",2.3
same,"Firefly, F4/pGL4 for S/B(F4) > 3","NR2F6; 10% FBS, 40 uM",3.7
same,"Firefly, F4, 1% FBS, cmpd/DMSO (mean)","NR2F6; 1% FBS, 0.5 uM",1.1
same,"Firefly, F4, 1% FBS, cmpd/DMSO (mean)","NR2F6; 1% FBS, 2 uM",0.9
same,"Firefly, F4, 1% FBS, cmpd/DMSO (mean)","NR2F6; 1% FBS, 10 uM",1.6
same,"Firefly, F4, 1% FBS, cmpd/DMSO (mean)","NR2F6; 1% FBS, 40 uM",3.2
same,"Firefly, F4, 10% FBS, cmpd/DMSO (mean)","NR2F6; 10% FBS, 0.5 uM",1.2
same,"Firefly, F4, 10% FBS, cmpd/DMSO (mean)","NR2F6; 10% FBS, 2 uM",1.2
same,"Firefly, F4, 10% FBS, cmpd/DMSO (mean)","NR2F6; 10% FBS, 10 uM",1.5
same,"Firefly, F4, 10% FBS, cmpd/DMSO (mean)","NR2F6; 10% FBS, 40 uM",5.0
same,fold induction at 0.5 µM,HEK293 pGL4; [4],1
same,fold induction at 2 µM,HEK293 pGL4; [5],1.2
same,fold induction at 10 µM,HEK293 pGL4; [6],2.2
same,fold induction at 40 µM,HEK293 pGL4; [7],2.2
same,fold induction at 0.5 µM,HEK293 pGL4; [8],1.3
same,fold induction at 2 µM,HEK293 pGL4; [9],1.2
same,fold induction at 10 µM,HEK293 pGL4; [10],1.7
same,fold induction at 40 µM,HEK293 pGL4; [11],1.2
same,fold induction at 0.5 µM,HEK293 pGL4; [12],1.3
same,fold induction at 2 µM,HEK293 pGL4; [13],1
same,fold induction at 10 µM,HEK293 pGL4; [14],1.5
same,fold induction at 40 µM,HEK293 pGL4; [15],1.3
CCC(C)N[C@H]1CS(=O)(=O)C[C@@H]1S(=O)(=O)c1ccc(C)cc1 (some centres unmarked) [Compound D113],"Firefly LBD, cmpd/DMSO (mean)",NR2F6 LBD; 0.5 uM,1.1
same,"Firefly LBD, cmpd/DMSO (mean)",NR2F6 LBD; 2 uM,1.3
same,"Firefly LBD, cmpd/DMSO (mean)",NR2F6 LBD; 10 uM,2.2
same,"Firefly LBD, cmpd/DMSO (mean)",NR2F6 LBD; 40 uM,2.5
same,fold induction at 0.5 µM,Renilla; [1],1.1
same,fold induction at 2 µM,Renilla; [1],1
same,fold induction at 10 µM,Renilla; [1],1.3
same,fold induction at 40 µM,Renilla; [1],1.4
same,fold induction at 0.5 µM,Renilla; [2],1.3
same,fold induction at 2 µM,Renilla; [2],1.2
same,fold induction at 10 µM,Renilla; [2],1.6
same,fold induction at 40 µM,Renilla; [2],1.8
same,fold induction at 0.5 µM,Renilla; [3],1
same,fold induction at 2 µM,Renilla; [3],1
same,fold induction at 10 µM,Renilla; [3],1.2
same,fold induction at 40 µM,Renilla; [3],1.8
same,"Firefly F4, cmpd/DMSO (mean)",NR2F6; 0.5 uM,1.3
same,"Firefly F4, cmpd/DMSO (mean)",NR2F6; 2 uM,1.6
same,"Firefly F4, cmpd/DMSO (mean)",NR2F6; 10 uM,2.8
same,"Firefly F4, cmpd/DMSO (mean)",NR2F6; 40 uM,3.3
same,"F4, Firefly/Renilla for S/B(F4) > 3","NR2F6; 10% FBS, 40 uM",3.2
same,"Firefly, F4/pGL4 for S/B(F4) > 3","NR2F6; 10% FBS, 40 uM",2.3
same,"Firefly, F4, 1% FBS, cmpd/DMSO (mean)","NR2F6; 1% FBS, 0.5 uM",1.4
same,"Firefly, F4, 1% FBS, cmpd/DMSO (mean)","NR2F6; 1% FBS, 2 uM",1.1
same,"Firefly, F4, 1% FBS, cmpd/DMSO (mean)","NR2F6; 1% FBS, 10 uM",2.8
same,"Firefly, F4, 1% FBS, cmpd/DMSO (mean)","NR2F6; 1% FBS, 40 uM",2.5
same,"Firefly, F4, 10% FBS, cmpd/DMSO (mean)","NR2F6; 10% FBS, 0.5 uM",1.7
same,"Firefly, F4, 10% FBS, cmpd/DMSO (mean)","NR2F6; 10% FBS, 2 uM",1.5
same,"Firefly, F4, 10% FBS, cmpd/DMSO (mean)","NR2F6; 10% FBS, 10 uM",2.1
same,"Firefly, F4, 10% FBS, cmpd/DMSO (mean)","NR2F6; 10% FBS, 40 uM",5.8
same,fold induction at 0.5 µM,HEK293 pGL4; [4],1.2
same,fold induction at 2 µM,HEK293 pGL4; [5],1.1
same,fold induction at 10 µM,HEK293 pGL4; [6],2.6
same,fold induction at 40 µM,HEK293 pGL4; [7],2
same,fold induction at 0.5 µM,HEK293 pGL4; [8],1
same,fold induction at 2 µM,HEK293 pGL4; [9],1.2
same,fold induction at 10 µM,HEK293 pGL4; [10],1.8
same,fold induction at 40 µM,HEK293 pGL4; [11],1.6
same,fold induction at 0.5 µM,HEK293 pGL4; [12],1.1
same,fold induction at 2 µM,HEK293 pGL4; [13],1.2
same,fold induction at 10 µM,HEK293 pGL4; [14],1.7
same,fold induction at 40 µM,HEK293 pGL4; [15],2.5
